Measurements published in patent publication US4957735A, “Target-sensitive immunoliposomes- preparation and characterization” (The University of Tennessee Research Corporation, priority 1987, dated 1990).
In brackets after ≈: the same amount, converted by molar mass. Like-named read-outs stand apart in the source and are kept apart here.

Legend:
[1] = system: HSV; test: Efficacy in inhibiting HSV replication in L929 cells (virus yield, TCID50 assay); format: cell-based, HSV-1, HF strain; conditions: HSV-infected L929 cells; for free drug amount required for comparable antiviral activity relative to TS immunoliposome encapsulated AraC: FIG. 7B
Description: The HF strain of HSV-1 was propagated on Hep-2 cell. After 3 cycles of freeze and thawing of the virus infected cells, the virus released were isolated from the supernatant after palleting the cell debris at 1000 g for 10 min. These virus stock contained 1×10^8 pfu/ml and were stored in -70° C.
(§1) Inhibitors were present throughout the assay. […] At 6 hr. […] At 42 hr.

[2] = L929 cell toxicity assay ([3H]dT incorporation); conditions: mouse, l929 cells
Description: (§2) As a measure of cytotoxicity, the drug concentration required to inhibit 50% of [^3 H]dT incorporation 42 hr. later (CD50) was determined.
(§3) PI. […] At 42 hr. PI, the supernatant of the L929 cells was collected and titered for the virus yield. The toxicity of the drug on the general cell population was monitored by [^3 H]dT incorporation since both AraC and ACV inhibit the DNA synthesis.
(§4) L929 cells at 75-80% confluency in 96-well Coster plates were infected with 0.1 multiplicity of infection (MOI) in McCoy's medium with 2% CS for 1 hr. Then the infection medium was removed and replaced with McCoy's medium containing 10% CS. For the target sensitivity assay (see below), L929 cells were grown in 35-mm six-well Linbro plates and a similar procedure was used to infect the L929 cell with various concentration of HSV, ranging from 0-10 MOI.
(§5) HSV-infected L929 cells in 7-mm 96-well plates were used in these experiments and each experiment was performed in quadruplicate. At 3 hr. post infection (PI), the growth medium of infected or uninfected cell was removed, and replaced with 180 micro-l of either liposome-entrapped or free drug AraC or ACV containing medium.
(§6) In the experiments where nucleoside-transport inhibitors were used, the inhibitors were added at 30 min. prior to the AraC-entrapped liposome addition. Inhibitors were present throughout the assay. For the control experiments, the infection medium was replaced with the fresh growth medium. At 6 hr. PI, 1 micro-Ci of [^3 H]dT was added in 20 micro-l for cytotoxicity assay (see below). Then incubation continued at 37° C. in a CO2 incubator. At 42 hr. PI, the growth medium was removed and immediately titered for the virus yield using the 50% tissue culture infective dose (TCID50) assay using Vero cells. The TCID50 assay was done in quadruplicates and the results were expressed in average ±S.D.
(§7) Cytotoxicity of the L929 cells was determined by 20 labeling the cells at 6 hr. PI with [3H]dT. At 42 hr. PI, the growth medium was removed and the cells were washed with cold PBS for a total of three times. Then the DNA was precipitated with 5% trichloroacetic acid (TCA) at 4° C. After two cycles of 2 hr. incubation with fresh TCA, the precipitates at the bottom of the plates were washed one more time with 200 micro-l of fresh TCA. Finally, the precipitates were redissolved and dequenched with 1N NaOH overnight. The solubilized TCA precipitates were counted for tritium radioactivity. Data presented were the average ±S.D. of the quadruplicates.

[3] = system: L929 cells; test: L929 cell toxicity assay ([3H]dT incorporation); conditions: for CD50 (drug concentration required to inhibit 50% of [3H]dT incorporation): 42 hr.
Description: as §2, §3, §4, §5, §6, §7

[4] = system: HSV; test: Repression of TS immunoliposome mediated therapeutic effect by nucleoside transport inhibitors (HSV yield, TCID50 assay); format: cell-based, HSV-1, HF strain; conditions: for repression of therapeutic effect of AraC-encapsulated TS immunoliposomes: Table II; for Log[HSV], with liposome: 0.1 microg/ml AraC in TS immunoliposomes
Description: While not wishing to be bound by theory, it is believed that the surface deposition of TS immunoliposomes was followed by transport of liposome-released drugs into the cytosol via cellular nucleoside transporters. To test this hypothesis, the effect on virus replication of two nucleoside transport inhibitors, p-nitrothiobenzylinosine, and dipyridamole were investigated.
PI was determined using the TCID50 assay described in Example 14
^b HSV infected cells were treated with or without 0.1 microg/ml
(ug/ml) of AraC encapsulated in the TS immunoliposomes.
as §1

[5] = target: nucleoside transport system; conditions: cited from earlier work

## Nc1nc2c(ncn2COCCO)c(=O)[nH]1 [ACV, acycloguanosine]
[1]; Human alphaherpesvirus 1, 42 hr. PI, FIG. 8, read-out: 50% effective dose (ED50), virus inhibition
  EC50: 1.1 µg/mL (≈ 4.88 µM)
[2]
  CC50 at 42 h: 0.0125 µg/mL (≈ 0.0555 µM)
[3]
  CD50 (drug concentration required to inhibit 50% of [3H]dT incorporation): 12.5 ng/mL

## OCCN(CCO)c1nc(N2CCCCC2)c2nc(N(CCO)CCO)nc(N3CCCCC3)c2n1 [Dipyridamole]
[4]
  repression of therapeutic effect of AraC-encapsulated TS immunoliposomes: concentration dependent
[4]; inhibitor 1.4 uM
  Log[HSV] Diff. (with vs without liposome): 1.6
  Log[HSV], without liposome: 5.3 ± 0.3
  Log[HSV], with liposome: 3.7 ± 0.3
[4]; inhibitor 11.1 uM
  Log[HSV] Diff. (with vs without liposome): 1.4
  Log[HSV], without liposome: 4.8 ± 0.3
  Log[HSV], with liposome: 3.4 ± 0.4
[5]; noncompetitive inhibitor
  Ki: 3 µM

## O=[N+]([O-])c1ccc(CSc2ncnc3c2ncn3[C@@H]2O[C@H](CO)[C@@H](O)[C@H]2O)cc1 [p-Nitrothiobenzylinosine, S-(p-Nitrobenzyl)-6-thioinosine]
[4]
  repression of therapeutic effect of AraC-encapsulated TS immunoliposomes: concentration dependent
[4]; inhibitor 12.5 nM
  Log[HSV] Diff. (with vs without liposome): 2.3
  Log[HSV], without liposome: 5.1 ± 0.9
  Log[HSV], with liposome: 2.8 ± 0.8
[4]; inhibitor 100.0 nM
  Log[HSV] Diff. (with vs without liposome): 0.8
  Log[HSV], without liposome: 4.6 ± 0.2
  Log[HSV], with liposome: 3.8 ± 0.4
[5]; competitive inhibitor
  Ki: 0.001 µM

## Nc1ccn([C@@H]2O[C@H](CO)[C@@H](O)[C@@H]2O)c(=O)n1 [AraC, cytosine-beta-D-arabinoside]
[1]
  inhibition of virus replication: only a marginal effect on virus replication
  free drug amount required for comparable antiviral activity relative to TS immunoliposome encapsulated AraC: at least 1000 fold
[1]; listed as free AraC
  free drug amount required for comparable antiviral activity relative to TS immunoliposome encapsulated AraC: ≥ 1000 fold
[2]
  CC50 at 42 h: 0.0003 µg/mL (≈ 0.00123 µM)
[3]
  CD50 (drug concentration required to inhibit 50% of [3H]dT incorporation): 0.3 ng/mL
[3]; HSV-infected / host L929 cells
  cytotoxicity: cytotoxic to infected cells
[3]; uninfected control cells, [3H]dT incorporation
  cytotoxicity to uninfected cells: cytotoxic
